In patent US11666589B2, “Pivarubicin and benzarubicin compositions” (Paradox Pharmaceuticals, Inc., priority 2020, dated 2023):

Tests used:
[1] = system: HL-60 human promyelocytic leukemia cells transfected with Bcl-XL; assay: Cytotoxicity in Bcl-XL transfected HL-60 cells; format: cell-based; details: 5 μM for 1 h, 72 h drug-free
Procedure: (§1) For the results shown in FIG. 5A, LNCaP cells transfected with Bcl-2 expression vector were assessed for doxorubicin or pivarubicin cytotoxicity, compared to cells transfected with empty vectors. Cells were exposed to 5 μM drug for 1 h, washed, and further incubated for 72 h in drug-free medium. Viability was determined by the MTT assay. For the results shown in FIG. 5B, pivarubicin cytotoxicity in HL-60 cells transfected with Bcr-Abl or Bcl-XL expression vectors were assessed for doxorubicin or pivarubicin cytotoxicity and compared as described for FIG. 5A.

[2] = system: human LNCaP prostate cancer cells; assay: Pivarubicin cytotoxicity after PKCd siRNA transfection; format: cell-based; details: PKCd-siRNA-transfected cells
[3] = system: 32D.3, J774.2 and 293 cells; assay: Biotransformation to AD 288 after uptake into cells; format: in vitro ADME; details: initial (1 hour), 1 μM
Source text: (§2) Intracellular drug was extracted and analyzed by fluorescence HPLC as described previously.

[4] = system: J774.2 murine macrophage-like cells; assay: Drug biotransformation analysis (HPLC of intracellular drug) in J774.2 cells; format: in vitro ADME
Source text: as §2

[5] = system: 32D.3 murine myeloid cells; assay: Drug biotransformation analysis (HPLC of intracellular drug) in 32D.3 cells; format: in vitro ADME
Source text: as §2

[6] = system: HL-60 cells transfected with Bcr-Abl; assay: Cytotoxicity in Bcr-Abl transfected HL-60 cells; format: cell-based, human
Procedure: as §1

PKCd = molecular target: T1, PKCd (Mus musculus, UniProt P28867); assay: PKCd translocation (cell fractionation, immunoblot); format: cell-based, murine; details: within 4 hours of treatment with 5 μM; 32D.3 cells
T1 construct: endogenous in cells; host or cells: 32D.3 murine myeloid cells
T1 sequence (P28867 whole entry): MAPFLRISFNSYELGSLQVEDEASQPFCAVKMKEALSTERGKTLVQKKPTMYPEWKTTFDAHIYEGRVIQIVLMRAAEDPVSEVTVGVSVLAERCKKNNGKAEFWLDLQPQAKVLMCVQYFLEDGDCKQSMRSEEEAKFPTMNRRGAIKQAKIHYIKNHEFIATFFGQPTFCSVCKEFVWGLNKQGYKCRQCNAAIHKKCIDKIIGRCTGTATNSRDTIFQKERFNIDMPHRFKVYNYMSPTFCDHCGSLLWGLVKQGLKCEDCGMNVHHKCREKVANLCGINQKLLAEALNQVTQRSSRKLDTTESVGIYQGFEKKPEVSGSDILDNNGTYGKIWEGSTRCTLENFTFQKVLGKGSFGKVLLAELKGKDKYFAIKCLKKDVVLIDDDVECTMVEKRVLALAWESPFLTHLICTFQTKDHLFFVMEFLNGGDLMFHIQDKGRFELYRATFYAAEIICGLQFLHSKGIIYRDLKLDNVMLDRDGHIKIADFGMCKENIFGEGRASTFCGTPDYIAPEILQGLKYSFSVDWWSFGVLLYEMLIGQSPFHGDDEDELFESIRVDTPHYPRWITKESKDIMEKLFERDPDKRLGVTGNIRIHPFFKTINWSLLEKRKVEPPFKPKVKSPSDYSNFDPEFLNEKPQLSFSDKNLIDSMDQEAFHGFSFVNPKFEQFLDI
Source text: Inhibition of PKCd activity also selectively impedes pivarubicin cytotoxicity.

[7] = system: LNCaP human prostate cancer cells transfected with Bcl-2; assay: MTT cytotoxicity in Bcl-2 transfected LNCaP cells; format: cell-based; details: 5 μM for 1 h, 72 h drug-free
Procedure: as §1

[8] = system: 293 embryonic human kidney cells; assay: Drug biotransformation analysis (HPLC of intracellular drug) in 293 cells; format: in vitro ADME
Source text: as §2

32D.3 cells = assay: Analysis of apoptosis (cytochrome c release immunoblot, TUNEL); format: cell-based, murine; details: 5 μM for 1 hour
Procedure: Detection of DNA fragmentation in apoptotic cells by the TUNEL assay and immunoblot analyses of cytochrome c release were performed as described previously.
Once distributed into microsomal membranes, pivarubicin triggered rapid, mitochondrial-dependent apoptosis that was independent of cell cycle arrest. Marked release of cytochrome c into the cytosol as an indicator of mitochondrial depolarization and dysfunction is detected within 5 hours of drug treatment, while DNA fragmentation, as detected by TUNEL staining, is abundant by 6 hours.
In a study of Cytochrome c (Cyt C) release by pivarubicin (PIV) and control (C), 32D.3 cells were exposed to 5 μM pivarubicin for 1 hour, then incubated in drug-free medium for an additional 4 hours. Cells were then fractionated to isolate the cytosolic fraction, subjected to immunoblotting and treated with anti-cytochrome c monoclonal antibody (1:250) for 2 hours, followed by a 1-hour treatment with 1:1000 dilution of horseradish peroxidase-conjugated goat anti-mouse second antibody as described previously. Proteins were detected by chemiluminescence (FIG. 3A). […] Individual fields of cells were detected for both DNA 3′-end labeling (green: grayscale image in FIG. 3D) or total cellular DNA staining by propidium iodide (red: grayscale images in FIGS. 3C and 3E). […]

COc1cccc2c1C(=O)c1c(O)c3c(c(O)c1C2=O)C[C@@](O)(C(=O)COC(=O)C(C)(C)C)C[C@@H]3O[C@H]1C[C@H](NCc2ccccc2)[C@H](O)[C@H](C)O1 [Pivarubicin, N-Benzyladriamycin-14-pivalate]
effect of Bcl-XL overexpression on rate of drug-induced apoptosis [1]: do not impede | increase in concentration required to achieve 50% cell kill [2]: 2.5 fold | drug initially biotransformed [3]: less than 10% | % Parent Compound ([4]; J774.2, 1 hr, 1 μM drug, 37° C.): 90% | % Parent Compound ([4]; J774.2, 8 hr (1 hr drug + 7 hours drug-free medium)): 90% | % Parent Compound ([5]; 32D.3, 1 hr, 1 μM drug, 37° C.): 100% | % Parent Compound ([5]; 32D.3, 8 hr (1 hr drug + 7 hours drug-free medium)): 96% | effect of Bcr-Abl on cytotoxicity [6]: no inhibitory effect | PKCd translocation (PKCd): translocates from the cytosolic to the membrane fraction | effect of Bcl-2 overexpression on rate of drug-induced apoptosis [7]: do not impede | % Parent Compound ([8]; 293, 1 hr, 1 μM drug, 37° C.): 98% | % Parent Compound ([8]; 293, 8 hr (1 hr drug + 7 hours drug-free medium)): 94% | time to marked release of cytochrome c into the cytosol (32D.3 cells; then drug-free medium): ≤ 5 h | DNA fragmentation detected by TUNEL staining (32D.3 cells; by 6 hours): abundant
